# Data published in patent US20140256663A1, “Amphotericin Analogous Compounds and Pharmaceutical Compositions Containing Them” (CENTRO DE INVESTIGACION Y DE ESTUDIOS AVANZADOS DEL …, priority 2010, published 2014).
# Columns and labels:
# [1] = Recarrier K. thesis; cited from earlier work
# Candida kruzei = test: Antifungal activity in vitro by flow cytometry, Candida kruzei; format: cell-based; conditions: 24 h at 37° C., read-out: CF50 Candida kruzei
# Protocol: (§1) The antifungal activity of the polyene macrolide derivate of the present invention was determined by flow cytometry method earlier described (Pinto et al., J. Medical Microbiology, 2009; 58, 1454-1462; Pina-Vaz and Rodriguez, Methods Mol. Biol. 2010; 638:281-289). For the test two strains of Candida albicans (ATCC 10231 and 752) and Candida kruzei were used. A cellular suspension of 1×10^6 UFC/mL was used, which has sown in 96-well plates. […] As controls were used: untreated yeasts (control of living cells), yeasts exposed to UV radiation (arrest, inhibition of proliferation), and yeasts exposed at temperature of 100° C. (dead yeasts). Cells were collected by centrifugation at 10,000×g for 10 min, they were washed once in phosphate buffer. […] of propidium iodide 0.1 mg/mL were added to the cell suspension. It was incubated during 30 minutes at room temperature and protected from light. Finally, the samples were analyzed by flow cytometry (Becton-Dickinson Facsc Calibur, laser argon 480 nm). The intrinsic parameters and fluorescence in the FL2 channel (yellow/orange fluorescence) for FUN and channel FL3 (red fluorescence, filter 630 nm) for propidium iodide were acquired and registered on a logarithmic scale for a minimum of 7500 events per sample. For data analysis, the quadrants were adjusted in a plot of data lines of fluorescence intensity of samples. […] These quadrants were used to quantify the percentile of cells showing altered fluorescence compared to drug-free controls.
# [2] = test system: Candida albicans ATCC 10231; test: Antifungal activity in vitro by flow cytometry, Candida albicans ATCC 10231; format: cell-based; conditions: ATCC10231, 24 h at 37° C., read-out: CF50 Candida albicans ATCC 10231
# Protocol: as §1
# human erythrocytes = test: Hemolytic assay on human erythrocytes; format: cell-based; conditions: 1 hour
# Protocol: The hemotoxicity of the polyene macrolide derivative of the present invention was determined by measuring the toxicity to human erythrocytes (values HE50) using a method established by Cybulska, et al. (Cybulska, B., Borowski, E. and Gary-Bobo, M. Relationship between ionophoric and hemolytic activities of perimycin A and vacidin A, two polyene macrolide antifungal antibiotics. Biochem Pharmacol. 1989; 38(11): 1755-1762). For determining the haematoxicity 2 mL blood were obtained and placed in a tube with EDTA. The number of erythrocytes was counted in a Neubauer chamber, and 1×10^7 cells/mL were placed in test tubes. The erythrocytes were resuspended in 450 μL of KCl 150 mM+Tris 3 mM buffer. The erythrocytes were treated with concentrations of 0.01, 0.1, 1, 10 y 100 μM and incubated in a water bath for 1 hour. They were then centrifuged at 1500 rpm for 15 seconds; 150 μL were taken from the supernatant and placed in 96-well plates; the optical density of each group was measured using a plate reader at a wavelength of 550 nm. We included one tube with the drug solvent (DMSO 1%) as internal control. We also included one tube only with erythrocytes and 500 μl of buffer KCl 150 mM+Tris 3 mM, which we consider as a negative control group and a tube with 500 μl of red cells and 35 mM NaCl (positive control).
# [3] = test system: Candida albicans ATCC 752; test: Antifungal activity in vitro by flow cytometry, Candida albicans ATCC 752; format: cell-based; conditions: ATCC752, 24 h at 37° C., read-out: CF50 Candida albicans ATCC 752
# Protocol: as §1
# [4] = test system: Saccharomyces cerevisae FY833(SC) cells; test: Viability of Saccharomyces cerevisae FY833 (SC) cells at various concentrations; format: cell-based; conditions: FIG. 1, various concentrations
# Protocol: All derivatives were tested for antibiotic activity in yeast cultures of S. cerevisiae.
# [5] = test system: human renal cells 293Q (ATCC CLR-1573); test: MTT cytotoxicity on human renal cells 293Q
# Protocol: For cytotoxicity studies human kidney cells (ATCC No. CRL-1573) were used. The cells were cultured with Minimum Essential Medium (MEM) (GIBCO BRL), supplemented with 10% fetal bovine serum (FBS) (GIBCO BRL), 2 mM 1-glutamine (GIBCO BRL), 1.5 gL Na2HCO3 (Sigma Chemical Co), 0.1 mM nonessential amino acids (Sigma Chemical Co), and 1 mM sodium pyruvate (In vitro, S.A.). The technique of bromide of 3(4,5-dimethylthiazol-2-yl)-2,5-diphenyl tetrazolium (MTT) (Sigma Chemical Co) was applied; a technique which is based on the conversion of dye to an insoluble precipitate called formazan. This test is used as an indicator of mitochondrial function in living cells that measures the metabolic capacity in cells and serves as an indicator of cytotoxicity. […] (Mosman […], Immunol Methods, 65: 55-63). The cytoxicity test consisted of planting 10,000 cells per well in 96-well plates (Corning Incorporated Costar) in MEM and incubate them (Nuaire us autoflow CO2 water-jacketed incubator) during 24 h at 37° C. and 5% CO2. […] After incubation, cells were treated and incubated anew for 24 h. After this time the medium was aspirated carefully and replaced with 200 μL of fresh medium, and 50 μL of MTT was added for a total volume of 250 μl. They were then incubated for 4 hours in the above conditions. After that time the medium with MTT was carefully removed and 200 μL of DMSO and 25 μL of Sorensen buffer (0.1 M glycine+0.1 M NaCl at pH 10.5) were added to each well. The plate was then mixed until the formazan crystals dissolved, and it was finally read in a plate reader (Microplate Limaning System Ultramark, Biorad) at a wavelength of 550 nm.
# For the tests, we used human renal ephythelial cells (293Q) (ATCC Catalog No. CRL-1573). The cells were cultured with Minimum Essential Medium (MEM) (GIBCO BRL) supplemented with 10% fetal bovine serum (FBS) (GIBCO BRL), 2 mM L-glutamine (GIBCO BRL), 1.5 g/L Na2HCO3 (Sigma Chemical Co), 0.1 mM nonessential amino acids (Sigma Chemical Co), and 1 mM sodium pyruvate (In vitro, S.A.). For cytoxicity tests, we applied the technique of bromide 3(4,5-dimethylthiazol-2-yl)-2,5-diphenyl tetrazolium (MTT) (Sigma Chemical Co), which is based on the conversion of the dye to an insoluble precipitate called formazan. This test is used as an indicator of mitochondrial function in living cells which measures the metabolic capacity in cells and serves as an indicator of cytotoxicity. (Wang, H. Z., Chang, C. H., Lin, C. P., Tsai, M. C). Using MTT viability assay to test the cytotoxicity of antibiotics and steroid to cultured porcine corneal endothelial cells. J. Ocul. Pharmacol. Ther. 1996; 12: 35-43). For the essay 10,000 cells were seeded per well in 96-well plates (Corning Incorporated Costar) in the medium already indicated and incubated for 24 h at 37° C. and 5% CO2. […] After incubation, cells were treated and incubated again for 24 h. The medium was carefully aspirated and replaced with 200 μl fresh medium, adding 50 μl MTT solution for a total volume of 250 μl. They were then incubated for 4 hours in the above conditions. The medium was carefully removed with MTT and 200 μl DMSO and 25 μl Sorense buffer (0.1 M glycine+0.1 M NaCl at pH 10.5) was added to each well. Then the plate was mixed until the formazan crystals dissolved; it was finally read in a reader plate (Microplate Limaning System Ultramark, Biorad) at a wavelength of 550 nm.
# [6] = Unit channel studies in chicken egg lecithin bilayers with cholesterol
# Protocol: The activity is determined by the presence of the different channels formed by polyenes in the lipid bilayer (Cotero, et al., supra; Venegas, et al., supra). […] These values were determined by the technique of unit channel delineated above.
# Unit channel studies were performed according to procedures described earlier (Cotero, et al., supra, Venegas, et al., supra). Required liposomal suspensions were prepared using lecithin with cholesterol or ergosterol. These suspensions were placed in an ultrasonic bath for 15 minutes to produce unilamellar vesicles. Subsequently, the suspension was placed in a 100 μl eppendorf and a lipid bilayer was formed on the tip of a micro-electrode. The unit channels of amphotericin and of the invented compounds were incorporated to this bilayer. The unit channel current of the various compounds was recorded with an electrometer, and then these records were analyzed by determining the activity of the compounds and the characteristics of the channels formed.
# The activity is determined by the presence of the various channels formed by polyenes in the lipid bilayer (Cotero, et al., supra, Venegas, et al., supra). […] This conductance is the effect of all the channels present and was determined by the unit channel technique earlier described.
# [7] = 200 μM compound, 30 mol % cholesterol, 27° C.
SMILES,selectivity ergosterol versus cholesterol POPC membranes [1],IC50 (Candida kruzei) [µM],IC50 [2] [µM],HE50 (Hemolysis 50) (human erythrocytes) [µM],IC50 [3] [µM],inhibitory capacity / potency on SC cells compared to AmB [4],"collateral cytotoxicity on human renal cells 293Q compared to AmB ([5]; FIG. 2, FIG. 8)","DT50 CitE50 ([5]; human renal cells 293Q, 24 h) [µM]","Opening probability, channel type I [6, 7] [%]","Opening probability, channel type II [6, 7]","Opening probability, channel type III [6, 7]","Opening probability, channel type IV [6, 7]","Opening probability, channel type V [6, 7]","Opening probability, channel type VI [6, 7]","activity of transmembranal channels in the cholesterol membrane ([6]; in words, compared to AmB)"
C[C@@H]1[C@H](O)[C@@H](C)/C=C/C=C/CC/C=C/C=C/C=C/C=C/C(O[C@H]2O[C@H](C)[C@@H](O)[C@H](N)[C@@H]2O)CC2O[C@](O)(CC(O)C(O)CCC(O)CC(O)CC(O)CC(=O)O[C@H]1C)CC(O)C2C(=O)O (stereo partly drawn) [nystatin],much higher selectivity,–,–,–,–,–,–,–,–,–,–,–,–,–,–
"CC1OC(O[C@H]2/C=C/C=C/C=C/C=C/C=C/C=C/C=C/C(C)[C@@H](O)C(C)C(C)OC(=O)C[C@H](O)C[C@H](O)CC[C@@H](O)[C@H](O)C[C@H](O)C[C@]3(O)CC(O)[C@@H](C(=O)N(C(C)C)C(C)C)C(C2)O3)C(O)C(N)C1O (stereo partly drawn) [A-3, N-diisopropylamide of AmB]",–,> 100,> 50,53,> 100,low potency in fungal cells,low cytoxicity,180,<1,N.O.,N.O.,N.O.,N.O.,N.O.,more reduced presence of channels in membranes with cholesterol
